# From patent publication US11814652B2, “Pluripotent stem cell differentiation-promoting agent” (Oriental Yeast Co., Ltd., priority 2018, dated 2023)
# Key:
# Format in all cases: cell-based, human
# iPS cells 201B7 strain [1] = experiment: Flow cytometry of Nestin/Pax6 ectodermal markers, differentiation-induction in medium with β-NMN (Example 2); settings: ectodermal differentiation-inducing medium with β-NMN 0.1, 0.25 or 1 mM; 2nd, 4th, 7th day; versus absence of β-NMN
# Method: The effect of β-NMN on the ectodermal differentiation-induction of the iPS cells was examined. The 201B7 strain was used as the iPS cells. The iPS cells were seeded in a 12-well plate coated with Matrigel (manufactured by Corning Incorporated) according to the manufacturer's protocol at 8×10^5 cells/well. The cells in the 12-well plate were cultured in a culture medium prepared by adjusting an ectodermal differentiation-inducing culture medium of “STEMdiff Trilineage Differentiation kit” (manufactured by STEMCELL Technologies) to have a final concentration of β-NMN of 0, 0.1, 0.25, or 1 mM, and a final concentration of Rock inhibitor of 10 μM for 1 day. From the 1st day after seeding, the medium was replaced every day with a culture medium obtained by removing the Rock inhibitor from the culture medium at the time of seeding. […] Then, the cells were stained with a fluorescence-labeled anti-Nestin antibody (manufactured by Biolegend, clone 10C2) and a fluorescence-labeled anti-Pax6 antibody (manufactured by Becton, Dickinson and Company, clone O18-1330). After washing the stained cells, a flow cytometer “FACScaliber” (manufactured by Becton, Dickinson and Company) was used to analyze the fluorescence intensity of the anti-Nestin antibody and the fluorescence intensity of the anti-Pax6 antibody in each sample. […]
# iPS cells 201B7 strain [2] = experiment: Flow cytometry of Nestin/PAX6 after ectodermal differentiation-induction following undifferentiated culture with β-NMN (Example 7); settings: β-NMN 0.25 or 1 mM before ectodermal differentiation-induction; 7th or 9th day; versus absence of β-NMN
# Method: The effects of culturing in the presence of β-NMN before induction of differentiation on the ectodermal differentiation-induction of iPS cells was examined. As the iPS cells, the 201B7 strain was used. The iPS cells were cultured in a culture dish in the same manner as in Example 5, and when the confluent reached 70 to 80%, the iPS cells were detached from the culture dish and collected. The collected iPS cells were seeded at 3×10^5 cells/well in a 24-well plate coated with Matrigel (manufactured by Corning Incorporated) according to the manufacturer's protocol. The cells in the 24-well plate were cultured for 1 day in a culture medium prepared by removing β-NMN from the culture medium when culturing in the culture dish and adjusting to have a final concentration of Rock inhibitor of 10 μM. From the 1st day after seeding, the medium was replaced every day with a culture medium for ectodermal differentiation-induction of “STEMdiff Trilineage Differentiation kit” (manufactured by STEMCELL Technologies). In the same manner as in Example 2, the cells sampled on the 7th or 9th day after seeding were stained with a fluorescently labeled anti-Nestin antibody and a fluorescently labeled anti-PAX6 antibody, and a flow cytometer was used to analyze the fluorescence intensity of the anti-Nestin antibody and the fluorescence intensity of the anti-PAX6 antibody in each sample. […]
# iPS cells 201B7 strain [3] = experiment: Cell number during mesodermal differentiation-induction in medium with β-NMN (Example 3); settings: mesodermal differentiation-inducing medium containing β-NMN 0.1, 0.25 or 1 mM; 7th day after seeding; versus medium not containing β-NMN
# Method: The effects of β-NMN on the mesodermal differentiation-induction of iPS cells were examined. The 201B7 strain was used as the iPS cells. The iPS cells were seeded in a 24-well plate coated with Matrigel (manufactured by Corning Incorporated) according to the manufacturer's protocol at 1×10^5 cells/well. The cells in the 24-well plate were cultured in a culture medium for iPS cells adjusted to have a final concentration of Rock inhibitor of 10 μM for 1 day. From the 1st day after seeding, the culture medium was replaced with a culture medium prepared by adjusting a mesoderm differentiation-inducing culture medium of “STEMdiff Trilineage Differentiation kit” (manufactured by STEMCELL Technologies) to have a final concentration of β-NMN of 0, 0.1, 0.25, or 1 mM for 1 day. The culture medium was replaced with a culture medium prepared by adjusting a mesodermal differentiation-inducing culture medium to have final concentrations of both β-NMN and Rock inhibitor of 10 μM only on the 1st day after seeding. Cells of the 7th day after seeding were sampled and the cell numbers were counted. As a result, the number of the cells cultured in the mesodermal differentiation-inducing culture medium containing β-NMN was larger than the number of the cells cultured in the medium not containing β-NMN.
structure (smiles),measurement,setting,value
"NC(=O)c1ccc[n+]([C@@H]2O[C@H](COP(=O)([O-])O)[C@@H](O)[C@H]2O)c1 [β-NMN, β-nicotinamide mononucleotide]",ratio of Nestin-positive Pax6-positive cells,iPS cells 201B7 strain [1],higher
same,ratio of Nestin-positive PAX6-positive cells,iPS cells 201B7 strain [2],no clear difference
same,number of the cells,iPS cells 201B7 strain [3],larger
